Several values for one entry are separate records, joined by “and”; a condition that tells them apart may be missing. Equal entries are not always repeated. Entries after “also recorded” stand apart in the source; their conditions may differ. Each block holds one molecule with its values, some of them ahead of it.
Tests used:
Na+/K+-ATPase = target: T1, Na+/K+-ATPase (Bos taurus, UniProt Q08DA1); assay: Na+/K+-ATPase inhibition assay (86Rb+ uptake) in MDBK cells; type: cell-based, bovine; conditions: 0.2-200 ng/well
T1 construct: host or cells: MDBK (Madin-Darby bovine kidney) cells
Protocol: The assay in MDBK cells has been described previously (see Benaksas at al., above). The assay is described briefly here. Madin-Darby bovine kidney (MDBK) cells (ATCC:CCL22) were maintained in Dulbecco's Modified Eagle's Medium (DMEM) with 5% Fetal Bovine Serum and 5% Bovine Calf Serum in a 5% CO2/95% humidified air atmosphere at 37° C. and split (1:2) once per week.
One day before the assay, cells were plated in a 96-well plate at a density of 5×10^5 cells/well in DMEM with serum. On the day of the assay the medium was removed and the cells washed with phosphate buffered saline (PBS) before addition of 100 μL of assay media (122 mM NaCl, 1.8 mM CaCl2, 0.8 mM MgSO4, 24 mM NaHCO3, 1 mM sodium pyruvate, 25 mM glucose, 14 mM glycylglycine, 0.2% phenol red, 8 mM Na2HPO4 1.15 mM KH2PO4, pH 8.0) and 100 μl of sample. The plate was preincubated for 30 minutes at 37° C., then chilled on ice for 10 minutes. To each well was added 0.15 μCi ^86RbCl (Amersham) in 10 μL of assay media. The plate was then incubated at 37° C. for 10 minutes. A portion (100 μL) of the supernatant was counted with 0.5 mL of scintillation cocktail in a liquid scintillation counter. As a control for Na^+/K^+-ATPase inhibition, a dose response curve for ouabain in the range of 10^−5-10^−8 M was obtained. Intra-experiment coefficient of variation for ouabain was 3-15%. […]

conscious rats = assay: In vivo bioassay for natriuresis in conscious rats; design: species or system rat; conditions: for Natriuretic Response (R): R > 0.67 = active
Protocol: The assay for natriuresis in conscious rats has been described previously (see Benaksas et al., above). The assay is briefly reiterated here. Female Sprague-Dawley (Harlan) rats (200-250 g) were cannulated in the femoral artery and vein for monitoring of mean arterial pressure (MAP) and Infusion of saline and samples, respectively. The bladder was catheterized for collection of urine in ten-minute periods. Furosemide (0.4 mg/kg bwt; 1 mg/mL in 0.17% saline) was infused as a positive control at the beginning of the sixth ten-minute period. The sample was infused at the beginning of the seventeenth ten-minute period. Urine was collected for another 150 minutes. The volume of the urine was determined gravimetrically and the Na^+ and K^+ concentrations determined with a Beckman E2A electrolyte analyzer.
The natriuretic response of a sample was normalized to the dose of furosemide infused. The not sodium excretion for the Infusion of furosemide or sample was calculated as follows. The median sodium excretion value (μmoles Na^+/10 minute period) for the five periods before infusion of furosemide or sample was used to establish a baseline value for the calculation of ΔUNaV (=μmoles Na^+ period—baseline μmoles Na^+) for administration of either furosemide or sample respectively. The sum of ΔUNaV for the four periods following infusion of furosemide was the net sodium excreted for furosemide, defined as FR. The sum of ΔUNaV for the fifteen periods following infusion of the sample was the net sodium excreted for the sample defined as SR. The natriuretic ratio Rn (or normalized natriuretic response) of a sample was calculated by dividing SR by FR (Rn=SR/FR). A sample is considered natriuretically active if the Rn value for that sample was greater than or equal to 0.67 (greater than 99% confidence limits).

[1] = Chemical characteristics / stability of the natriuretic LLUs; type: physicochemical
[2] = test system: tumor cells derived from a spontaneously arising mammary tumor; assay: Tumor formation in mice injected with mammary tumor cells; type: in vivo; conditions: 20 mg/kg, 21 days after tumor cell injection, versus untreated tumor-induced control mice
Description: Four groups of mice are used in the study: (1) control mice in which tumor formation is not induced but treatment with a formulation of γ-tocopherol 75% (weight to weight) and LLU-α 25% (weight to weight) is rendered; (2) control mice in which tumor formation is induced and treatment is not rendered; (3) experimental mice in which tumor formation is induced and treatment with γ-tocopherol 75% (weight to weight) is rendered; and (4) experimental mice in which tumor formation is induced and treatment with a formulation of γ-tocopherol 75% (weight to weight) and LLU-α 25% (weight to weight) is rendered. As a further control, mice in which tumor formation is induced are treated with varying concentrations of α-tocopherol so as to evaluate the relative effectivity of γ-tocopherol and the formulation of γ-tocopherol and LLU-α, as compared to α-tocopherol.
Mice which receive treatment with γ-tocopherol or a formulation of γ-tocopherol and LLU-α, as described above, are given 20 mg/kg of supplement for a period of 2-4 weeks. Tumor cells derived from a spontaneously arising mammary tumor are then injected into the thigh area of the experimental mice to induce tumor formation. Treatment with γ-tocopherol and the formulation of γ-tocopherol and LLU-α is continued according to the protocol above. After 21 days, the mean volume of tumors in the mice is determined and compared.

melting point: 173 °C
Structure (SMILES): Cc1c(C)c2c(c(C)c1O)CCC(C)(CCC(=O)O)O2 (racemic) [Example 12, 2,5,7,8-tetramethyl-2-(β-carboxyethyl)-6-hydroxy chroman]

Na+/K+-ATPase inhibition (Na+/K+-ATPase): no inhibition
kaliuresis (potassium excretion) (conscious rats; after infusion, conscious rat): no detectable kaliuresis
Physical Properties: stability in CDCl3 ([1]; CDCl3): Unstable in
Physical Properties: stability in dilute base ([1]; dilute base): instability; also recorded: Unstable in
Structure (SMILES): Cc1c(O)cc2c(c1C)OC(C)(CCC(=O)O)CC2 (racemic) [LLU-α, 6-hydroxy-2,7,8-trimethylchroman-2-propanoic acid]
natriuretic activity (conscious rats; 8 μg/kg, further purified on acetic acid/acetonitrile RP-HPLC (seventh step)): active
change in mean arterial pressure (conscious rats; infusion, conscious rat): Neither LLU-α nor -γ caused a significant Change; also recorded: does not cause a significant change
effect on blood pressure (conscious rats; infusion, conscious rat): no effect on blood pressure
natriuresis when infused into the rat (conscious rats; infusion, conscious rat): sustained natriuresis
natriuretic activity at lower or higher doses (conscious rats; partially purified (sixth step), doses below or above 4-8 μg/kg): no activity
dose range with natriuretic activity (conscious rats; partially purified from silica gel-HPLC (sixth purification step)): 4 to 8 µg/kg
natriuretic dose-response curve (conscious rats; shape of curve (Table III)): narrow and biphasic
Natriuretic Response (R) (conscious rats; silica gel HPLC fraction 17, dose 0.2 μg, infused in conscious rat): −0.14
Natriuretic Response (R) (conscious rats; silica gel HPLC fraction 17, dose 1 μg): 0.27
Natriuretic Response (R) (conscious rats; silica gel HPLC fraction 17, dose 2 μg): 1.14 and 0.75
Natriuretic Response (R) (conscious rats; silica gel HPLC fraction 17, dose 10 μg): 0.26
Natriuretic Response (R) (conscious rats; silica gel HPLC fraction 18, dose 22.4 μg): 0.02
Natriuretic Response (R) (conscious rats; silica gel HPLC fraction 18, dose 56.4 μg): 0.23
Natriuretic Response (R) (conscious rats; silica gel HPLC fraction 19, dose 0.2 μg): 0.24
Natriuretic Response (R) (conscious rats; silica gel HPLC fraction 19, dose 1 μg): 0.93
Natriuretic Response (R) (conscious rats; silica gel HPLC fraction 19, dose 10 μg): 0.09
sodium excretion in the urine in mammals (conscious rats; without a corresponding increase in potassium excretion): capable of increasing sodium excretion

Structure (SMILES): Cc1c(O)cc2c(c1C)O[C@](C)(CCC[C@H](C)CCC[C@H](C)CCCC(C)C)CC2 [γ-tocopherol]
mean volume of tumors [2]: less than the mean volume of tumors in the control mice

Reference: patent US6908943B2, “Use of γ-tocopherol and its oxidative metabolite LLU-α in the treatment of disease” (Loma Linda University Medical Center, priority 1998, dated 2005)
